Measurements: US9975893B2, “Pyrazolo[3,4-c]pyridine derivatives” (CSPC ZHONGQI PHARMACEUTICAL TECHNOLOGY (SHIJIAZHUANG) CO., …, priority 2014, dated 2018)

Experiments:
[1] = target: T1, Factor Xa (Homo sapiens, UniProt P00742); assay: Anti-Factor Xa activity assay (chromogenic substrate CS-11(22)); type: biochemical; settings: ratio of compound IC50 to apixaban IC50; Factor Xa 0.1 U/ml, absorbance at 405 nm, 37° C.
T1 construct: purchased MERK
Experimental: I. Anti-Factor Xa Activity Assay
Substrate: CS-1122 (Hyphen)
Buffer: 50 mM TrisHCl, 150 mM NaCl, PH8.3
100 μL of buffer, 50 μL of different concentrations of compounds (diluted with buffer) and 50 μl of 0.1 U/ml Factor Xa enzyme (diluted with buffer) were added to a 96-well plate. After 15 min of exposure, 50 μL of chromogenic substrate 2.5 mg/ml CS-11 (22) was added. The substrate hydrolysis was monitored by measuring absorbance at 405 nm at 37° C. for up to 30 min (interval: 30 seconds) using a microplate spectrophotometer. IC50 was calculated by bliss.

[2] = system: Male SD rats; assay: Rat tail bleeding model; type: in vivo; settings: rat tail transected 0.5 to 4 hours after administration; prolongation = ratio of treated vs. mean vehicle value; relative to apixaban
Experimental: II Rat Tail Bleeding Model
Male SD rats were allocated randomly and administrated. After the administration, the rats were anesthetized by intraperitoneal injection of 10% chloral hydrate. At the time point of 0.5 to 4 hours (Tmax in PK) after the administration, the tails of anesthetized rats were transected 3 mm from the tip and vertically immersed in saline at 37° C. The time point when the continuous blood flow ceased for >30 s was measured. The prolongation of bleeding time was expressed as a ratio of treated vs. the mean vehicle value. Effects of compounds were determined as described below.

[3] = system: Male SD rats; assay: Arteriovenous shunt model in rats; type: in vivo, rat; set-up: concentration or dose not given beside the values; settings: rats given orally 2-4 hours before shunt opened; shunt 15 minutes; thrombus weight, treated vs. mean vehicle
From the text: III. Arteriovenous Shunt Model in Rats
Two 10 cm-long polyethylene tubings (1.50 and 2.88 mm of inner and outer diameter, respectively) linked to a central part (8 cm-long, 2.11 and 3.77 mm of inner and outer diameter, respectively) containing a 6 cm silk thread and filled with heparin (3.125 U/ml) were placed between the right carotid artery and the left jugular vein in rats.
Male SD rats were anesthetized by intraperitoneal injection of 10% chloral hydrate after oral dose, inverted fixation, then the right catotid artery and left vena jugularis externa were isolated, the proximal and distal sutures of catotid artery were tied. The syringe needle were cannulated into the catotid artery and fasted, the other of the tube was cannulated into the right vena jugularis externa. Rats were given orally 2-4 hours before the shunt was opened. Blood flowed from the right carotid artery into the polyethylene tubing and then return to left vena jugularis externa. The shunt was then disconnected 15 minutes later and the silk thread covered with thrombus was immediately withdrawn and weighed. The wet weight of the thrombus was determined. Then the silk thread was dried at 60° C. for 4 h to get the dry weight of the thrombus. The anti-thrombotic effects of these agents were expressed as percentage inhibition of thrombus formation based on the treated vs. the corresponding mean vehicle.

T1 sequence (P00742 235-488 limits assumed): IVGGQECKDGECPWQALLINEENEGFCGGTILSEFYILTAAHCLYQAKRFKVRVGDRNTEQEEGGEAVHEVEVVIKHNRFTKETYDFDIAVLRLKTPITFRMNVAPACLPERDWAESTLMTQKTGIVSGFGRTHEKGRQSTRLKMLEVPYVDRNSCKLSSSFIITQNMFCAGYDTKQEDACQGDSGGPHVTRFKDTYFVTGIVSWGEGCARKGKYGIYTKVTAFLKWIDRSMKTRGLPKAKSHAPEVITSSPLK
T1 sequence (P00742 41-179 partner limits assumed): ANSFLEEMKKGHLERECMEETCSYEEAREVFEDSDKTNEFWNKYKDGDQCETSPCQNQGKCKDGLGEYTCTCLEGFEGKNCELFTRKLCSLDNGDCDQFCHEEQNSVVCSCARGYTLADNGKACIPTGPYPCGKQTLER

IC50(Compound)/IC50(apixaban) [1] | The Prolongation of bleeding time (compound)/The Prolongation of bleeding time(apixaban) [2] | SMILES | Inhibition of thrombus formation (%) [3]
<1 | <1 | CCOc1ccc(-n2nc(C(N)=O)c3c2C(=O)N(c2ccc(-n4cccc(C)c4=O)c(C)c2)CC3)cc1 [A 39, 1-(4-ethoxyphenyl)-6-(3-methyl-4-(3-methyl-2-oxopyridin-1(2H)-yl)phenyl)-7-oxo-4,5,6,7-tetrahydro-1H-pyrazolo[3,4-c]pyridine-3-carboxamide] | 64.5%
<1 | <1 | CCOc1ccc(-n2nc(C(N)=O)c3c2C(=O)N(c2ccc(-n4cccc(C)c4=O)c(C)c2)CC3)cc1F [A 40, 1-(3-fluoro-4-ethoxyphenyl)-6-(3-methyl-4-(3-methyl-2-oxopyridin-1(2H)-yl)phenyl)-7-oxo-4,5,6,7-tetrahydro-1H-pyrazolo[3,4-c]pyridine-3-carboxamide] | 63.4%
